Key:
[1] = Dissolving capacity (HAP or FAP dissolving and CaF2 dissolving); type: physicochemical; settings: 1M aqueous solution of the acid containing 23% sodium fluoride, pH 4 with sodium hydroxide; diluted to 30 wt. %, stirred 24 hours with HAP, FAP, CaF2 powder
Protocol: Dissolving capacity was measured in the following manner. Described specifically, the preparation is diluted to 30 wt. % with deionized water. The phosphorus and calcium concentrations in the solution were each determined in advance by using a calorimetric reagent and they were subtracted later. To 100 ml of the diluted solution were added hydroxyapatite (HAP), fluorapatite (FAP) and CAF2, each in the powdery form. The resulting mixture was stirred for 24 hours by a magnetic stirrer and the reaction mixture was filtered to remove the solid matter. The phosphorus and calcium concentrations in the solution were determined by a calorimetric reagent.
As the calorimetric reagents for calcium and phosphorus, Calcium Test Wako (for determination of calcium, product of Wako Pure Chemicals) and P Test Wako (for determination of inorganic phosphorus, product of Wako Pure Chemicals) were employed, respectively.

[2] = tested on: cow tooth (having a mirror polished surface); assay: Whitening effect on immersed cow tooth, judged from photographs by a panel of 20 experts; settings: 1M aqueous solution of the acid containing 23% sodium fluoride, pH 4; cow tooth immersed 24 hours
Protocol: Using acids different in pKa, 1M aqueous solutions containing 23% sodium fluoride were prepared, followed by adjustment to pH 4 with sodium hydroxide. After measuring their dissolving capacity, a cow tooth (having a mirror polished surface), which had been photographed in advance, was immersed in each solution for 24 hours. After the treatment, the tooth was taken out from the solution and photographed again. The color of the tooth before immersion was compared with that after immersion. The comparison was made as follows: A panel of 20 experts was asked to see the photographs of the tooth before and after treatment and to evaluate it as ◯ when the teeth was whitened after the treatment, while as × when no change in color was recognized. Upon evaluation, the tooth which was whitened but lost its gloss was evaluated as ×. The preparation evaluated as ◯ by at least a half of the experts was judged effective and the others were judged ineffective.
Toothpastes as shown in Table 3 were prepared in a conventional manner. Dissolving capacity of each of their 30% aqueous solutions was measured as in Example 1. Their whitening effect was measured also as in Example 1 (by immersing in the toothpaste for 24 hours).

[3] = 25° C.; acid added; cited from earlier work

Question: With CC(=O)O [Acetic acid] as the compound, how does the Dissolving capacity [1] read?
Answer: ∘

Question: What about the Whitening effect [2] of the same compound?
Answer: ∘

Question: Which results are given for O=C(O)CC(O)(CC(=O)O)C(=O)O [Citric acid]?
Answer: Dissolving capacity [1]: ∘; Whitening effect [2]: ∘; pKa [3]: 2.9

Question: With Cl [Hydrochloric acid, reference compound] as the compound, how does the Dissolving capacity [1] read?
Answer: ∘

Question: For CC(O)C(=O)O (centres unmarked) [Lactic acid], which Dissolving capacity [1] is on record?
Answer: ∘

Question: And the Whitening effect [2]?
Answer: ∘

Question: Which Dissolving capacity [1] does the source give for O=C(O)CC(O)C(=O)O (centres unmarked) [Malic acid] here?
Answer: ∘

Question: And the Whitening effect [2]?
Answer: ∘

Question: For O=P(O)(O)O [Phosphoric acid, reference compound], which Dissolving capacity [1] is on record?
Answer: ∘

Question: With O=S(=O)(O)O [Sulfuric acid, reference compound] as the compound, how does the Dissolving capacity [1] read?
Answer: ∘

Question: For O=C(O)C(O)C(O)C(=O)O (centres unmarked) [Tartaric acid], which Whitening effect [2] is on record?
Answer: ∘

Question: And the pKa [3]?
Answer: 2.99

From patent US20030124068A1, “Oral preparation” (priority 2000, published 2003)
